Experimental data published in patent US20140377241A1, “BIOPREPARATION BALIS FOR THE PROPHYLAXIS AND TREATMENT OF INFECTIOUS DISEASES” (priority 2010, published 2014).
Where two headings read alike, the source gives them in different places.

Columns and labels:
[1] = tested on: B. licheniformis VKPM B-8610; test: Sensitivity to antibiotics of the Bacillus type strains (inhibited growth area); format: cell-based, Bacillus licheniformis
B. subtilis VKPM B-8611 = test: as above; format: cell-based

Compound | Diameter of the culture's inhibited growth area ([1]; B. licheniformis VKPM B-8610) | Diameter of the culture's inhibited growth area (B. subtilis VKPM B-8611) [mm] | Diameter of the culture's inhibited growth area [1] [mm]
C[C@@H](O)[C@H]1C(=O)N2C(C(=O)O)=C(SCCN=CN)C[C@H]12 [Imipenem] | 30 ± 0.1 mm | 38 ± 0.2 | –
CCC[C@@H]1C[C@@H](C(=O)N[C@@H]([C@H]2O[C@H](SC)[C@H](O)[C@@H](O)[C@H]2O)[C@H](C)Cl)N(C)C1 [Clindamycin] | 12 ± 0.1 mm | 9 ± 0.2 | –
NC[C@H]1O[C@H](O[C@H]2[C@H](O)[C@@H](O[C@H]3O[C@H](CO)[C@@H](O)[C@H](N)[C@H]3O)[C@H](N)C[C@@H]2N)[C@H](N)C[C@@H]1O [Tobramycin] | 20 ± 0.2 mm | 25 ± 0.1 | –
Gentamicin | 19 ± 0.2 mm | 25 ± 0.3 | –
Cn1nnnc1SCC1=C(C(=O)O)N2C(=O)[C@@H](NC(=O)[C@H](O)c3ccccc3)[C@H]2SC1 [Cefamandole] | 15 ± 0.1 mm | 35 ± 0.3 | –
CC1(C)S[C@@H]2[C@H](NC(=O)[C@H](N)c3ccccc3)C(=O)N2[C@H]1C(=O)O [Ampicillin] | ∘ | 11 ± 0.2 | –
CC1(C)S[C@@H]2[C@H](NC(=O)[C@H](NC(=O)N3CCN(S(C)(=O)=O)C3=O)c3ccccc3)C(=O)N2[C@H]1C(=O)O [Mezlocillin] | 15 ± 0.2 mm | 21 ± 0.2 | –
CO[C@@]1(NC(=O)Cc2cccs2)C(=O)N2C(C(=O)O)=C(COC(N)=O)CS[C@@H]21 [Cefoxitin] | 13 ± 0.1 mm | 18 ± 0.1 | –
CO[C@@]1(NC(=O)C(C(=O)O)c2ccc(O)cc2)C(=O)N2C(C(=O)O)=C(CSc3nnnn3C)CO[C@@H]21 (stereo partly shown) [Moxalactam] | 12 ± 0.3 mm | 11 ± 0.2 | –
CC1(C)S[C@@H]2[C@H](NC(=O)[C@H](NC(=O)N3CCNC3=O)c3ccccc3)C(=O)N2[C@H]1C(=O)O [Azlocillin] | 16 ± 0.1 mm | 19 ± 0.1 | –
CC(=O)OCC1=C(C(=O)O)N2C(=O)[C@@H](NC(=O)Cc3cccs3)[C@H]2SC1 [Cephalothin] | 21 ± 0.3 mm | 35 ± 0.1 | –
CCn1cc(C(=O)O)c(=O)c2ccc(C)nc21 [Nalidixic acid] | 15 ± 0.1 mm | 21 ± 0.1 | –
Polymyxin B | 10 ± 0.2 mm | 11 ± 0.1 | –
CCn1cc(C(=O)O)c(=O)c2cc(F)c(N3CCNCC3)cc21 [Norfloxacin] | 25 ± 0.2 mm | 24 ± 0.2 | –
NCC[C@H](O)C(=O)N[C@@H]1C[C@H](N)[C@@H](O[C@H]2O[C@H](CN)[C@@H](O)[C@H](O)[C@H]2O)[C@H](O)[C@H]1O[C@H]1O[C@H](CO)[C@@H](O)[C@H](N)[C@H]1O [Amikacin] | 17 ± 0.2 mm | 22 ± 0.3 | –
CO/N=C(\C(=O)N[C@@H]1C(=O)N2C(C(=O)O)=C(CSc3nc(=O)c(=O)[nH]n3C)CS[C@H]12)c1csc(N)n1 [Ceftriaxone] | 12 ± 0.2 mm | 20 ± 0.4 | –
CCN1CCN(C(=O)N[C@@H](C(=O)N[C@@H]2C(=O)N3C(C(=O)O)=C(CSc4nnnn4C)CS[C@H]23)c2ccc(O)cc2)C(=O)C1=O [Cefoperazone] | 13 ± 0.1 mm | 15 ± 0.2 | –
CN(C)[C@@H]1C(O)=C(C(N)=O)C(=O)[C@@]2(O)C(O)=C3C(=O)c4c(O)cccc4[C@@](C)(O)[C@H]3C[C@@H]12 [Tetracycline] | – | 26 ± 0.1 | 24 ± 0.1

Compound | Diameter of the culture's inhibited growth area ([1]; B. licheniformis VKPM B-8610) | Diameter of the culture's inhibited growth area (B. subtilis VKPM B-8611) [mm] | Diameter of the culture's inhibited growth area [1] [mm]
O=C1CN(/N=C/c2ccc([N+](=O)[O-])o2)C(=O)N1 [Nitrofurantoin] | 20 ± 0.1 mm | 15 ± 0.2 | –
CC1(C)S[C@@H]2[C@H](NC(=O)C(C(=O)O)c3ccccc3)C(=O)N2[C@H]1C(=O)O (stereo partly shown) [Carbenicillin] | 20 ± 0.1 mm | 23 ± 0.5 | –
CC(C)(O/N=C(\C(=O)N[C@@H]1C(=O)N2C(C(=O)[O-])=C(C[n+]3ccccc3)CS[C@H]12)c1csc(N)n1)C(=O)O [Ceftazidime] | 13 ± 0.2 mm | 6 ± 0.3 | –
NC[C@H]1O[C@H](O[C@H]2[C@H](O)[C@@H](O[C@H]3O[C@H](CO)[C@@H](O)[C@H](N)[C@H]3O)[C@H](N)C[C@@H]2N)[C@H](O)[C@@H](O)[C@@H]1O [Kanamycin] | 21 ± 0.1 mm | 22 ± 0.2 | –
CO/N=C(\C(=O)N[C@@H]1C(=O)N2C(C(=O)O)=C(COC(C)=O)CS[C@H]12)c1csc(N)n1 [Cefotaxime] | 9 ± 0.1 mm | 15 ± 0.1 | –
CN[C@H](CC(C)C)C(=O)N[C@H]1C(=O)N[C@@H](CC(N)=O)C(=O)N[C@H]2C(=O)N[C@H]3C(=O)N[C@H](C(=O)N[C@H](C(=O)O)c4cc(O)cc(O)c4-c4cc3ccc4O)[C@H](O)c3ccc(c(Cl)c3)Oc3cc2cc(c3O[C@@H]2O[C@H](CO)[C@@H](O)[C@H](O)[C@H]2O[C@H]2C[C@](C)(N)[C@H](O)[C@H](C)O2)Oc2ccc(cc2Cl)[C@H]1O [Vancomycin] | 10 ± 0.1 mm | 12 ± 0.1 | –
O=C(N[C@H](CO)[C@H](O)c1ccc([N+](=O)[O-])cc1)C(Cl)Cl [Chloramphenicol] | 10 ± 0.1 mm | 18 ± 0.3 | –
Cc1nnc(SCC2=C(C(=O)O)N3C(=O)[C@@H](NC(=O)Cn4cnnn4)[C@H]3SC2)s1 [Cefazolin] | 19 ± 0.2 mm | 25 ± 0.2 | –
CO/N=C(\C(=O)N[C@@H]1C(=O)N2C(C(=O)O)=CCS[C@H]12)c1csc(N)n1 [Ceftizoxime] | 11 ± 0.1 mm | 3 ± 0.1 | –
CO/N=C(\C(=O)N[C@@H]1C(=O)N2C(C(=O)O)=C(COC(N)=O)CS[C@H]12)c1ccco1 [Cefuroxime] | 3 ± 0.1 mm | 2 ± 0.1 | –
CC1(C)S[C@@H]2[C@H](NC(=O)[C@H](C(=O)O)c3ccsc3)C(=O)N2[C@H]1C(=O)O [Ticarcillin] | 21 ± 0.2 mm | 25 ± 0.4 | –
COc1cc(Cc2cnc(N)nc2N)cc(OC)c1OC [Trimethoprim] | 25 ± 0.2 mm | 23 ± 0.1 | –
CC1(C)S[C@@H]2[C@H](NC(=O)Cc3ccccc3)C(=O)N2[C@H]1C(=O)O [Benzylpenicillin] | 3 ± 0.2 mm | 7 ± 0.1 | –
CCN1CCN(C(=O)N[C@@H](C(=O)N[C@@H]2C(=O)N3[C@@H]2SC(C)(C)[C@@H]3C(=O)O)c2ccccc2)C(=O)C1=O [Piperacillin] | 11 ± 0.1 mm | 15 ± 0.3 | –
Cc1onc(-c2ccccc2)c1C(=O)N[C@@H]1C(=O)N2[C@@H]1SC(C)(C)[C@@H]2C(=O)O [Oxacillin] | 11 ± 0.1 mm | 15 ± 0.3 | –
COc1cccc(OC)c1C(=O)N[C@@H]1C(=O)N2[C@@H]1SC(C)(C)[C@@H]2C(=O)O [Methicillin] | 10 ± 0.1 mm | 20 ± 0.1 | –
CC1(C)S[C@@H]2[C@H](NC(=O)[C@H](N)c3ccc(O)cc3)C(=O)N2[C@H]1C(=O)O [Amoxicillin] | 16 ± 0.1 mm | 19 ± 0.2 | –
